Measured values: PMC5577105, “A New Chimeric Natriuretic Peptide, CNAAC, for the Treatment of Left Ventricular Dysfunction after Myocardial Infarction” (Scientific Reports, 2017)

Assays:
[1] = parameters: method as in PMID 18205700; conditions: in circulation; cited from earlier work
[2] = system: myocardial infarction rats (left anterior descending coronary artery ligation); assay: Tissue weights / cardiac hypertrophy after myocardial infarction; format: in vivo, rat; conditions: MI rats, NP 20 nmol/kg i.p. every 2 days for 4 weeks; mean ± SEM, n = 6
Procedure: (§1) The Sham and MI animal model were established as described by Johns TN et al.[24], [25] […] The chest was closed immediately. Only a thoracotomy and closure were performed in the sham group. From the day of surgery, 0.85% NaCl or NPs (20 nmol/kg) were administered to these groups (i.p), one injection every two days and lasted for four weeks. Four weeks later, the cardiac function was measured by Doppler echocardiography under anesthesia with pentobarbital sodium (40 mg/kg i.p.). A 12 MHz linear probe (Vevo2100, VisualSonics, Inc., CAN) was used to perform the transthoracic echocardiography. Left ventricular (LV) ejection fraction (EF), LV fraction shortening (FS), LV end diastolic diameter (LVEDd), and left ventricular end systolic diameter (LVESd) were measured. All examinations were performed in a blinded state.
(§2) The day after echocardiography was performed; rats in each group were weighed and anesthetized via a peritoneal injection of pentobarbital sodium (40 mg/kg i.p.). Supplemental doses of sodium pentobarbital were given when needed to maintain uniform anesthesia. A micro catheter was inserted into the left ventricle through the right […], and left ventricular systolic pressure (LVSP), left ventricular end diastolic pressure (LVEDP), and ± dp/dtmax were recorded by the BL-420F BioData Acquisition & Analysis Systems (TME Technology Co, Ltd, Chengdu, China). At the end of the experiment, blood was sampled and the following parameters were recorded: heart weight (HW), left ventricle weight (LVW), and lung weight (LW).

[3] = system: myocardial infarction rats (left anterior descending coronary artery ligation); assay: Serum humoral factors by ELISA after myocardial infarction; format: in vivo; conditions: NP 20 nmol/kg i.p. every 2 days for 4 weeks, rat ELISA, n = 6
Procedure: as §1, with “0.85% NaCl; 20 nmol/kg·2d; n = 6). The Sham” for “The Sham”, “blinded state. Blood samples were centrifuged (4000 rpm, 15 min) and the serum was separated. Serum BNP, Ang II, ALD, ET-1, cGMP levels were detected with rat ELISA kits (Lianshuo, Shanghai, China).” for “blinded state.”

[4] = system: myocardial infarction rats (left anterior descending coronary artery ligation); assay: Cardiac hemodynamics after myocardial infarction; format: in vivo, rat; conditions: MI rats, NP 20 nmol/kg i.p. every 2 days for 4 weeks, anesthetized, LV catheter, mean ± SEM, n = 6; for +dp/dtmax / −dp/dtmax: in mmHg/s
Procedure: as §1, §2

[5] = rat, in vivo, iv
Procedure: To determine the metabolic status of NPs in circulation, blood was collected from rats after a bolus injection of NPs. Rats were anesthetized with pentobarbital sodium (40 mg/kg i.p). One microcatheter was inserted into the left jugular vein to administer NPs, and another one was inserted into the right carotid artery to collect blood. After the surgery was completed, rats were allowed to stabilize for 15 min. Human ANP, CNP, VNP, or CNAAC at a concentration of 40 nmol/kg was administered in a bolus fashion (0.1 ml). Blood (0.5 ml) was sampled 5, 10, 20, and 30 min after the bolus injection. The samples from the plasma were analyzed using LT-20AT High-Performance-Liquid-Chromatography (HPLC) (Shimadzu, Tokyo, Japan). A linear gradient (Buffer A: acetonitrile with 0.05% trifluoroacetic acid; Buffer B: double distilled water with 0.05% trifluoroacetic acid)[36] was used for both analyses to separate peptides on an Inertsil OSD-3 (250 mm × 4.6 mm, 5 µm) chromatographic column (Shimadzu, Tokyo, Japan) and a Water Quatro-premier tandem quadrupole mass spectrometry and Alliance 2695 chromatographic system (Waters, Milford, Massachusetts, USA). Peak areas have been calculated with the Masslynx 4.1 software from Waters. […] Each experiment was conducted in duplicate, whereby duplicates are defined as two different vials.

For brain natriuretic peptide [BNP], the circulating half-life [1] is listed as “approximately 23 min”.
For C-type natriuretic peptide [CNP], the “BW (body weight)” value [2] was 347 ± 10 g, the “HW (heart weight)” value [2] was 1072 ± 84 mg and the “LVW (left ventricular weight)” value [2] was 492 ± 24 mg. The “LW (lung weight)” value [2] was 2190 ± 149 mg, the “serum level of Ang II, change vs. MI group” value [3] was “decreased” and the “serum level of ET-1, change vs. MI group” value [3] was “decreased”. For the same substance, the “serum level of cGMP, change vs. MI group” value [3] was “increased”, the Heart rate [4] was 443 ± 21 bpm and the LVEDP [4] was 6.5 ± 1.5 mm Hg. The LVSP [4] was 122.7 ± 4.8 mm Hg, the “+dp/dtmax” value [4] was 4025 ± 289 and the “−dp/dtmax” value [4] was 3917 ± 250.
In the case of atrial natriuretic peptide [ANP], the “BW (body weight)” value [2] is reported as 362 ± 8 g, the “HW (heart weight)” value [2] is reported as 1010 ± 39 mg and the “LVW (left ventricular weight)” value [2] is reported as 492 ± 24 mg. The “LW (lung weight)” value [2] was 2094 ± 188 mg, the “serum level of ALD, change vs. MI group” value [3] was “decreased” and the “serum level of Ang II, change vs. MI group” value [3] was “decreased”. For the same substance, the “serum level of ET-1, change vs. MI group” value [3] was “decreased”, the “serum level of cGMP, change vs. MI group” value [3] was “increased” and the Heart rate [4] was 437 ± 15 bpm. For the same substance, the LVEDP [4] was 7.2 ± 1.8 mm Hg, the LVSP [4] was 112.5 ± 3.9 mm Hg and the “+dp/dtmax” value [4] was 3651 ± 320. For the same substance, the “−dp/dtmax” value [4] was 3424 ± 453, the “NP remaining at 10 min” value [5] was 32.7% and the “NP remaining at 20 min” value [5] was “Less than 10%”. The “NP remaining at 30 min” value [5] was “completely degraded”.
